Test systems include T-47D breast; ACHN renal; KM12 colon; U251 CNS; EKVX NSCLC; SK-MEL-28 melanoma; NCI-H460 lung; UO-31 renal; 786-0 renal; HOP-62 NSCLC; COLO 205 colon; MOLT-4 leukemia.
Holding throughout (assay): DTP human tumour cell line panel, 48 h

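Grown in 96-well plates, cells were treated for 48 hours with each compound at five concentrations. Insufficient inhibition: endpoint recorded as highest concentration tested. TGI denotes the concentration required for complete inhibition of growth.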 Where a SMILES comes first, the peptide text is derived from it. [ ]: non-standard residue; d: D form. The star is where a group is joined. Tyr(3-Br) = N[C@@H](Cc1ccc(O)c(Br)c1)C(=O)O; Boc = CC(C)(C)OC(=O)*

This is an account of results in PubChem BioAssay (NCI).

As a reminder, the TGI is the concentration at which net growth stops. Read a high TGI as lower sensitivity of the cells. Regarding `CCN(CC)C(=S)SS(=O)(=O)c1ccc(Cl)cc1`, the TGI in the test with T-47D breast is above 100 µM; with ACHN renal it was above 100 µM; in the test on KM12 colon, 24.4 µM; in the test with U251 CNS it was 30.4 µM; in the test on EKVX NSCLC it was above 100 µM; with SK-MEL-28 melanoma, 34.4 µM. The TGI was above 100 µM in the test with NCI-H460 lung; 35.7 µM with UO-31 renal; above 100 µM in the test with 786-0 renal; 65.7 µM with HOP-62 NSCLC; above 100 µM in the test on COLO 205 colon.
Consider `CC1(C)CC(=O)C2=C(C1)NC1=C(C(=O)CC(C)(C)C1)C2c1ccc([N+](=O)[O-])cc1`, for which the TGI in the test with T-47D breast, in the test on ACHN renal, in the test with KM12 colon, with U251 CNS, with MOLT-4 leukemia and in the test with EKVX NSCLC was above 100 µM throughout. In addition, the TGI in the test on SK-MEL-28 melanoma, in the test on NCI-H460 lung, in the test on UO-31 renal, in the test with 786-0 renal, in the test with HOP-62 NSCLC and in the test with COLO 205 colon was above 100 µM throughout.
As to `COc1cc(NC(C)=O)ccc1C(=O)NN1C(=O)C(Cl)C1c1ccco1` (configuration not stated), the TGI in the test on T-47D breast, in the test with ACHN renal, in the test with KM12 colon, in the test on MOLT-4 leukemia, in the test with EKVX NSCLC and in the test with SK-MEL-28 melanoma was above 100 µM each time. In addition, the TGI in the test with UO-31 renal, with 786-0 renal and in the test with COLO 205 colon was above 100 µM in each case.
Regarding `Cc1ccc2c(n1)C(=O)C=CC2=O`, the TGI with T-47D breast is 4.74 µM; with ACHN renal, 8.63 µM; in the test on KM12 colon, 46.2 µM; in the test on U251 CNS it was 40.6 µM; in the test on MOLT-4 leukemia, above 24 µM; in the test on EKVX NSCLC, 15 µM. Also, the TGI with SK-MEL-28 melanoma is 15.3 µM; with NCI-H460 lung it was 36.2 µM; in the test with UO-31 renal it was 10.4 µM; with 786-0 renal, 11.4 µM; with HOP-62 NSCLC it was above 58.3 µM; with COLO 205 colon, 4.95 µM.
Take `Cc1ccc2c(sc(-c3ccc4c(c3)sc(-c3ccc5c(c3)sc(-c3ccc(N(C)C)cc3)[n+]5C)[n+]4C)[n+]2C)c1S(=O)(=O)O` (tested in a mixture with another compound): the TGI with T-47D breast, in the test on ACHN renal, in the test on KM12 colon, with U251 CNS, in the test with MOLT-4 leukemia and in the test with EKVX NSCLC was above 100 µM each time. The TGI in the test with SK-MEL-28 melanoma, in the test with UO-31 renal, in the test with 786-0 renal and in the test with COLO 205 colon was above 100 µM in each case.
With `N#CC(C#N)=C(N)/C(C#N)=C/c1ccc2ccccc2n1`, the TGI in the test on T-47D breast was above 100 µM; in the test on ACHN renal, 39.6 µM; with KM12 colon, 41.5 µM; in the test on MOLT-4 leukemia it was 97.9 µM; in the test with EKVX NSCLC, above 100 µM; with SK-MEL-28 melanoma, 43.2 µM. In addition, the TGI in the test on NCI-H460 lung is above 100 µM; with UO-31 renal it was 30.9 µM; in the test on 786-0 renal, 34.2 µM; in the test with HOP-62 NSCLC, 33 µM.
Take `O=C(Nc1cc2c(=O)oc3ccccc3c2oc1=O)c1cccnc1`: the concentration for total growth inhibition (TGI) with T-47D breast, with ACHN renal, in the test on KM12 colon, with U251 CNS, in the test on MOLT-4 leukemia and in the test with EKVX NSCLC was above 100 µM throughout. In addition, the TGI with SK-MEL-28 melanoma, with NCI-H460 lung, with UO-31 renal, in the test on 786-0 renal and with COLO 205 colon was above 100 µM throughout.
For `COC(=O)[C@H](Cc1ccc(O)c(Br)c1)NC(=O)[C@H](Cc1ccc(O)cc1)NC(=O)OC(C)(C)C` (Boc-Tyr-[Tyr(3-Br)]-OMe), the TGI in the test on T-47D breast is 44.4 µM; with ACHN renal, above 100 µM; with KM12 colon, above 100 µM; in the test on MOLT-4 leukemia, above 100 µM; in the test with EKVX NSCLC, above 100 µM; with SK-MEL-28 melanoma, above 100 µM. Besides, the TGI was 37.7 µM with NCI-H460 lung; above 100 µM in the test with UO-31 renal; above 100 µM in the test with 786-0 renal; above 100 µM in the test on HOP-62 NSCLC; above 100 µM in the test with COLO 205 colon.
In the case of `Cc1cc(N=Nc2c(O)ccc3ccccc23)ccc1N=Nc1cccc([N+](C)(C)C)c1`, the TGI in the test on T-47D breast is above 100 µM; in the test with ACHN renal, above 84.7 µM; with KM12 colon, 17.3 µM; in the test on U251 CNS it was 14.1 µM; with MOLT-4 leukemia it was above 100 µM; in the test on EKVX NSCLC, 62.1 µM. Besides, the TGI in the test with SK-MEL-28 melanoma was 62.3 µM; in the test with NCI-H460 lung, 30.9 µM; in the test on UO-31 renal, 29.7 µM; in the test with 786-0 renal, above 92 µM; in the test with HOP-62 NSCLC, 43.2 µM.
Regarding `Cc1nc2c(nc1C)-c1c(c3c(n1C)C(=O)CCC3)C(=O)C2=O`, the TGI was 0.0932 µM in the test with T-47D breast; 1.66 µM in the test on ACHN renal; 5.81 µM in the test on KM12 colon; 0.533 µM in the test on U251 CNS; 2.65 µM in the test with EKVX NSCLC; 1.88 µM in the test with SK-MEL-28 melanoma. The TGI in the test with NCI-H460 lung was determined as 2.7 µM; in the test with UO-31 renal it was 1.29 µM; in the test with 786-0 renal it was 3.23 µM; in the test with HOP-62 NSCLC, 2.37 µM; in the test on COLO 205 colon it was 3.46 µM.
For `COC(C(=O)C(O)C(C)O)C1CC2C=C3C=C(OC4CC(OC5CC(O)C(OC)C(C)O5)C(OC(C)=O)C(C)O4)C(C)C(=O)C3=C(O)C2=C(O)C1OC1CC(OC2CC(OC3CC(C)(O)C(OC(=O)C(C)C)C(C)O3)C(O)C(C)O2)C(O)C(C)O1` (configuration not stated), the TGI with T-47D breast was below 0.01 µM; in the test with KM12 colon it was below 0.01 µM; in the test with MOLT-4 leukemia it was above 100 µM; with EKVX NSCLC, below 0.01 µM; with SK-MEL-28 melanoma, below 0.01 µM; in the test on 786-0 renal it was below 0.01 µM. The TGI in the test with HOP-62 NSCLC and in the test on COLO 205 colon was below 0.01 µM in each case.
With `O=C(N/N=C/c1ccc([N+](=O)[O-])o1)c1ccc(C(=O)N/N=C/c2ccc([N+](=O)[O-])o2)cc1`, the TGI in the test with T-47D breast, in the test on ACHN renal, in the test with KM12 colon, in the test on U251 CNS, with MOLT-4 leukemia and with EKVX NSCLC was above 100 µM in each case. Besides, the TGI with SK-MEL-28 melanoma is 75.7 µM; in the test on UO-31 renal, above 100 µM; in the test on 786-0 renal it was above 100 µM; with HOP-62 NSCLC it was above 100 µM; with COLO 205 colon, 94.7 µM.
